Consider five compounds from patent US11098055B2, “Ester ACC inhibitors and uses thereof” (Gilead Apollo, LLC, priority 2015, dated 2021).

In brackets after ≈: the same amount, converted by molar mass. Where only a bound is given, the exact number is not on record here.

For orientation: MIC means the lowest concentration found to suppress growth.

One test has as its system C. krusei ATCC 6258. As to the kind of experiment: Anti-Fungal (Candida) Activity Assay, broth microtiter MIC. In kind it is cell-based, Candida krusei. The conditions noted are these: Pichia kudriavzevii, ATCC6258, 48 h, Table 3b (additional results); 3 replicates; MIC read at 48 h. The method, boiled down:
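Broth microdilution per CLSI M27-A3 in RPMI 1640 + MOPS, at a final inoculum of 2.5×10^3 CFU/mL. Compound DMSO stocks were diluted in water to a 128 μg/mL working solution. MIC was read visually against the growth control at 48 h.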

Test [1] has as its system Phytophthora capsici (Pc). As to the kind of experiment: Growth inhibition assay of fungal pathogens. In kind it is cell-based. The conditions noted are these: 48 h, Table 4b, read-out: Concentration at 90% Inhibition Pc. The method, boiled down:
(§1)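 Spore suspension in 17% V8 broth; cpd final 50/10/2 or 2/0.4/0.08 ppm, 2% DMSO. OD600 at 24 + 48 h, media blank subtracted, plus visual scoring. % inhibition at 48 h vs DMSO control.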

The next test relates to Septoria tritici (St). The test can be described thus: Growth inhibition assay of fungal pathogens. In kind it is cell-based. As to conditions: Zymoseptoria tritici, 48 h, Table 4b, read-out: Concentration at 90% Inhibition St. The method, boiled down:
as §1

Another test deals with Rhizoctonia solani (Rs). The test can be described thus: Growth inhibition assay of fungal pathogens. As to conditions: 48 h, Table 4b, read-out: Concentration at 90% Inhibition Rs. In kind it is cell-based. The method, boiled down:
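Spores, or mycelial plugs for Rhizoctonia, in 17% V8 medium (¼ PDB for plugs) were exposed to compound at final 50, 10 and 2 ppm or 2, 0.4 and 0.08 ppm, with 2% DMSO. Growth was read by OD600 with blank subtraction plus visual rating; percent inhibition at 48 h is relative to 2% DMSO control.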

The next test has as its system Diplodia maydis (Dm). As to the kind of experiment: Growth inhibition assay of fungal pathogens. The conditions noted are these: Stenocarpella maydis, 48 h, Table 4b, read-out: Concentration at 90% Inhibition Dm. In kind it is cell-based. The method in brief: as §1
In test [2] the test system is Fusarium virguliforme (Fv). The test can be described thus: Growth inhibition assay of fungal pathogens. In kind it is cell-based. As to conditions: 48 h, Table 4b, read-out: Concentration at 90% Inhibition Fv. The method in brief:
as §1

In test [3] the test system is Collectotrichum graminicola (Cg). The test can be described thus: Growth inhibition assay of fungal pathogens. In kind it is cell-based. The conditions noted are these: 48 h, Table 4b, read-out: Concentration at 90% Inhibition Cg. The method, boiled down: as §1
The test system of test [4] is Fusarium moniliforme (Fm). As to the kind of experiment: Growth inhibition assay of fungal pathogens. In kind it is cell-based. As to conditions: Fusarium verticillioides, 48 h, Table 4b, read-out: Concentration at 90% Inhibition Fm. The method in brief:
as §1

Another test has as its system Botrtyis cinerea (Bc). The test can be described thus: Growth inhibition assay of fungal pathogens. In kind it is cell-based. As to conditions: 48 h, Table 4b, read-out: Concentration at 90% Inhibition Bc. The method, boiled down:
as §1

With `CCOC(=O)c1sc2c(c1C)c(=O)n([C@@H](C)C(=O)N1CCCC1)c(=O)n2C[C@H](OCCC#N)c1cc(F)ccc1OC` [Compound I-23, ethyl 1-((R)-2-(2-cyanoethoxy)-2-(5-fluoro-2-methoxy-phenyl)ethyl)-5-methyl-2,4-dioxo-3-((S)-1-oxo-1-(pyrrolidin-1-yl)propan-2-yl)-1,2,3,4-tetrahydrothieno[2,3-d]pyrimidine-6-carboxylate], the MIC against C. krusei ATCC 6258 lay in the range of 0.25 to 1 µg/mL (≈ 0.416 to 1.66 µM). Also, the IC90 in test [1] is no less than 50 µg/mL; with Septoria tritici (St), no less than 50 µg/mL; with Rhizoctonia solani (Rs), 10 µg/mL (≈ 16.6 µM); in the test with Diplodia maydis (Dm) it was 10 µg/mL (≈ 16.6 µM); in test [2], no less than 50 µg/mL; in test [3], no less than 50 µg/mL. For the same compound, the IC90 in test [4] came to 2 µg/mL (≈ 3.33 µM); with Botrtyis cinerea (Bc), 10 µg/mL (≈ 16.6 µM).

In the test on C. krusei ATCC 6258, `CCOC(=O)c1sc2c(c1C)c(=O)n([C@H](C)C(=O)N1CCCC1)c(=O)n2C[C@H](OCCC#N)c1cc(F)ccc1OC` [Compound I-24, ethyl 1-((R)-2-(2-cyanoethoxy)-2-(5-fluoro-2-methoxy-phenyl)ethyl)-5-methyl-2,4-dioxo-3-((R)-1-oxo-1-(pyrrolidin-1-yl)propan-2-yl)-1,2,3,4-tetrahydrothieno[2,3-d]pyrimidine-6-carboxylate] showed an MIC of 2.1 to 4 µg/mL (≈ 3.5 to 6.66 µM). Moreover, the IC90 in [1] was no less than 50 µg/mL; in the test on Septoria tritici (St) it was no less than 50 µg/mL; in the test with Rhizoctonia solani (Rs), 0.08 µg/mL (≈ 0.133 µM); with Diplodia maydis (Dm), 2 µg/mL (≈ 3.33 µM); in [2] it was 2 µg/mL (≈ 3.33 µM); in [3], 2 µg/mL (≈ 3.33 µM). Besides, the IC90 was determined as 0.08 µg/mL (≈ 0.133 µM) in test [4] and 2 µg/mL (≈ 3.33 µM) in the test with Botrtyis cinerea (Bc).

Turning to `CCOC(=O)c1sc2c(c1C)c(=O)n([C@@H](C)C(N)=O)c(=O)n2C[C@H](OCCC#N)c1cc(F)ccc1OC` [Compound I-25, ethyl 3-((S)-1-amino-1-oxopropan-2-yl)-1-((R)-2-(2-cyanoethoxy)-2-(5-fluoro-2-methoxyphenyl)ethyl)-5-methyl-2,4-dioxo-1,2,3,4-tetrahydrothieno[2,3-d]pyrimidine-6-carboxylate], the MIC with C. krusei ATCC 6258 fell in the range of 1.1 to 2 µg/mL (≈ 2.01 to 3.66 µM). Also, the IC90 was no less than 50 µg/mL in test [1]; no less than 50 µg/mL in the test with Septoria tritici (St); 0.4 µg/mL (≈ 0.732 µM) in the test on Rhizoctonia solani (Rs); no less than 50 µg/mL in the test on Diplodia maydis (Dm); no less than 50 µg/mL in test [2]; no less than 50 µg/mL in test [3]. Moreover, the results for the IC90 (in test [4]; in the test on Botrtyis cinerea (Bc)) were 10 µg/mL (≈ 18.3 µM) and no less than 50 µg/mL, respectively.

For `CCOC(=O)c1sc2c(c1C)c(=O)n([C@H](C)C(N)=O)c(=O)n2C[C@H](OCCC#N)c1cc(F)ccc1OC` [Compound I-26, ethyl 3-((R)-1-amino-1-oxopropan-2-yl)-1-((R)-2-(2-cyanoethoxy)-2-(5-fluoro-2-methoxyphenyl)ethyl)-5-methyl-2,4-dioxo-1,2,3,4-tetrahydrothieno[2,3-d]pyrimidine-6-carboxylate], in the test on C. krusei ATCC 6258, the MIC lay in the range of 0.25 to 1 µg/mL (≈ 0.457 to 1.83 µM). In addition, the IC90 is no less than 50 µg/mL in test [1]; no less than 50 µg/mL in the test with Septoria tritici (St); 2 µg/mL (≈ 3.66 µM) in the test with Rhizoctonia solani (Rs); no less than 50 µg/mL with Diplodia maydis (Dm); no less than 50 µg/mL in test [2]; no less than 50 µg/mL in test [3]. Besides, the IC90 (in test [4]; in the test with Botrtyis cinerea (Bc)) was 10 µg/mL (≈ 18.3 µM) throughout.

For the compound `CCOC(=O)c1sc2c(c1C)c(=O)n([C@H](C)C(=O)N(C)C(C)C)c(=O)n2C[C@H](OCCC#N)c1cc(F)ccc1OC` [Compound I-27, ethyl 1-((R)-2-(2-cyanoethoxy)-2-(5-fluoro-2-methoxy-phenyl)ethyl)-3-((R)-1-(isopropyl(methyl)amino)-1-oxopropan-2-yl)-5-methyl-2,4-dioxo-1,2,3,4-tetrahydrothieno[2,3-d]pyrimidine-6-carboxylate], the MIC with C. krusei ATCC 6258 fell in the range of 0.25 to 1 µg/mL (≈ 0.415 to 1.66 µM). For the same compound, the IC90 in test [1] was no less than 50 µg/mL; in the test with Septoria tritici (St), no less than 50 µg/mL; in the test on Rhizoctonia solani (Rs) it was 2 µg/mL (≈ 3.32 µM); with Diplodia maydis (Dm) it was 2 µg/mL (≈ 3.32 µM); in [2], 0.4 µg/mL (≈ 0.664 µM); in [3], 2 µg/mL (≈ 3.32 µM). In addition, the IC90 was found to be 0.08 µg/mL (≈ 0.133 µM) in test [4] and 2 µg/mL (≈ 3.32 µM) with Botrtyis cinerea (Bc).
